Read-outs that look alike come from different tables or passages of the source.
Experiments:
[1] = test system: Trypanosoma brucei brucei; experiment: In vivo anti-trypanosomal activity in infected mice; set-up: species or system NMRI mice; conditions: for survival of infected mice in comparison to the untreated group: 50 mg/kg/d i.p. day 3-7 post-infection, followed to day 19
Description: (§1) NMRI mice (6-8 weeks of age) obtained from Envigo Laboratories (The Netherlands) were used. All in vivo experiments performed were approved by the Ethical Committee for animals use at the Health Sciences Sector of the Catholic University of Louvain (2017/UCL/MD/017).
Mice were randomly divided into 6 mice per group for 3-O-cis/trans-p-coumaroyltormentic acid (mixture of cis and trans) and ursolic acid, 4 for positive control (Suramine) and 7 for the negative control, and were infested intraperitoneally with 10^4 Trypanosoma brucei brucei. All compounds were solubilized in the vehicle (water-tween 80-ethanol) and administered intraperitoneally. 3-O-cis/trans-p-coumaroyltormentic acid or ursolic acid (UA) were administered at 50 mg/kg at day 3 after infection with the parasite and then every day until day 7 post-infection. Suramine (0.5 mg/kg) was administered while vehicle was used as a negative control. From day 3 post infection, a drop of blood collected each day from mouse-tail was used to count parasitemia.

[2] = In vivo acute toxicity test (highest tolerated dose); set-up: species or system NMRI mice; conditions: mice; for acute toxicity: intraperitoneally every 2 hours, 10-15-25-50 mg/kg, monitored 48 h
Description: as §1
The assessment of the highest tolerated dose was based on a DNDi protocol by Loset J.-R. et al. (V. Drug Screening for Kinetoplastids Diseases. A Training Manual for Screening in Neglected Diseases-DNDi, 2009) and adapted by Beaufay C. et al. (Malar J., 2017, 16, doi:10.1186/s12936-017-2054-y). Briefly, 3-O-cis/trans-p-coumaroyltormentic acid isolated from fractions F-F9 obtained from a callus of Malus domestica Cox cultivar of example 1 above was given intraperitoneally every 2 hours to 2 mice using increasing doses: 10-15-25-50 mg/kg from stock solutions of 10 mg/mL. Mice were controlled for any health problem symptoms or behavioral changes and monitored for weight and hematocrit after each injection and every day during 48 h after administration. Main organs (heart, liver, spleen, lung and kidney) of treated mice were observed and weighed wet during autopsy. Control group received the vehicle, distilled water with 10% of tween 80-ethanol (7:3). The total injected dose was finally recorded and will ensure the non-toxicity of in vivo anti-trypanosomal test.

[3] = test system: Human normal fibroblast cell line (WI-38); experiment: cells; type: cell-based; conditions: for cytotoxicity compared with parent oleanolic acid: in words
Method: The cytotoxicity of tested compounds was evaluated in parallel on a Human normal fibroblast cell line (WI-38) cultivated in a humidified atmosphere with 5% CO2 at 37° C. Human normal fibroblast cell line (WI-38) was cultivated in DMEM medium (Life Technologies) containing 4 mM L-glutamine, 1 mM sodium pyruvate supplemented with 10% fetal bovine serum (Sigma) and penicillin-streptomycin (100 UI/mL).
(§2) Suramine (a commercial anti-trypanosomal drug) and camptothecin were used as positive controls. Stock solutions of compounds to be tested were prepared at a concentration of 10 mg/mL in DMSO. The solutions were further diluted in medium (described in 1.1) to give 0.1 mg/mL stock solutions. Extracts and compounds were tested in eight serial three-fold dilutions (final concentration range: 50-0.02 mg/L) in 96-well microliter plates. All tests were performed at least in duplicate.

[4] = test system: Trypanosoma brucei brucei bloodstream forms (strain 427); experiment: In vitro antitrypanosomal activity on Tbb BSF; type: cell-based; conditions: for SI (Selectivity Index): cytotoxicity in WI38 compared to Tbb; for antitrypanosomal activity compared with parent ursolic/oleanolic acid: in words
Method: Antiparasitic activities were evaluated in vitro on Trypanosoma brucei brucei bloodstream forms (strain 427) (Tbb BSF). Tbb BSF were cultured in vitro at 37° C. with 5% CO2 in HMI9 medium containing 10% heat-inactivated fetal bovine serum, […] ([…]) and L-cysteine ([…]).
as §2, with “In vitro tests were performed as previously described by Hoet S. et al. (Planta Med., 2004, 70, 407-413, doi:10.1055/s-2004-818967). Suramine” for “Suramine”

[5] = listed as 3-O-p-coumaroyl ester of tormentic acid
[6] = cytotoxicity, WI-38 human fibroblasts, Table 3
[7] = cytotoxicity, WI-38 human fibroblasts, Table 3, read-out: WI38 (IC50 μM)
[8] = Tbb bloodstream forms strain 427, Table 3
[9] = Tbb bloodstream forms strain 427, Table 3, read-out: Tbb (IC50 μM)
[10] = cytotoxicity, WI-38 human fibroblasts, Table 3, read-out: WI38 (IC50 μg/mL)
[11] = Trypanosoma brucei, Tbb bloodstream forms strain 427, Table 3, read-out: Tbb (IC50 μM)
[12] = Trypanosoma brucei, Tbb bloodstream forms strain 427, Table 3, read-out: Tbb (IC50 μg/mL)
[13] = Table 4, same methods as example 3, read-out: Antitrypanosomal (Tbb) IC50 (μM, Mean ± Sd)
[14] = Table 4, same methods as example 3, read-out: Cytotoxicity (WI38) IC50 (μM, Mean ± Sd)

Compound: 3β-trans/cis-p-coumaroyl-2α,19α-dihydroxy-urs-12-en-28-oic acid [3-O-cis/trans-p-coumaroyltormentic acid]
- survival of infected mice in comparison to the untreated group [1, 5]: significant increase
- survival of infected mice in comparison to the untreated group ([1]; listed as esters): significantly improved
- parasitemia ([1]; day 4 post-infection, 50 mg/kg/day intraperitoneally, 10^4 Tbb/mouse): significant decrease
- survival increase ([1]; day 12 post-infection, 50 mg/kg i.p. day 3-7): 33.3%
- total cumulative highest tolerated dose ([2]; intraperitoneal, repeated injections): 100 mg/kg
- acute toxicity [2]: no acute toxic symptom
- acute toxicity [2, 5]: no acute toxicity
- WI38 (IC50 μg/mL) [3, 6]: 28.43 ± 0.79 µg/mL
- IC50 [3, 7]: 44.8 ± 1.25 µM
- Tbb (IC50 μg/mL) [4, 8]: 0.48 ± 0.36 µg/mL
- IC50 [4, 9]: 0.75 ± 0.57 µM
- anti-trypanosomal activity, times higher than that of tormentic acid ([4]; in vitro, versus tormentic acid): 10 times

Compound: CC[C@@]1(O)C(=O)OCc2c1cc1n(c2=O)Cc2cc3ccccc3nc2-1 [Camptothecin]
- IC50 [3, 7]: 0.12 ± 0.03 µM
- IC50 [3, 10]: 0.04 ± 0.01 µg/mL

Compound: C[C@H]1[C@H](C)CC[C@]2(C(=O)O)CC[C@]3(C)C(=CC[C@@H]4[C@@]5(C)C[C@@H](O)[C@H](O)C(C)(C)[C@@H]5CC[C@]43C)[C@H]12 [Corosolic Acid]
- IC50 [3, 7]: 19.8 ± 5.22 µM
- IC50 [3, 10]: 9.34 ± 2.47 µg/mL
- IC50 [4, 11]: 7.3 ± 0.59 µM
- IC50 [4, 12]: 3.45 ± 0.23 µg/mL
- SI (Selectivity Index) [4]: 2.7

Compound: C[C@H]1[C@H](C)CC[C@]2(C(=O)O)CC[C@]3(C)C(=CC[C@@H]4[C@@]5(C)CC[C@H](OC(=O)CCc6ccccc6)C(C)(C)C5CC[C@]43C)[C@H]12 (some centres unmarked) [Derivative (II-1), 3-O-hydrocinnamic ursolic acid]
- IC50 [3]: 142 ± 3.45 µM
- IC50 [4, 13]: 2.22 ± 0.66 µM

Compound: C[C@H]1[C@H](C)CC[C@]2(C(=O)O)CC[C@]3(C)C(=CC[C@@H]4[C@@]5(C)CC[C@H](OC(=O)/C=C/c6ccccc6)C(C)(C)C5CC[C@]43C)[C@H]12 (some centres unmarked) [Derivative (II-2), 3-O-cinnamic ursolic acid]
- IC50 [4, 13]: 68.2 ± 2.15 µM

Compound: C[C@H]1[C@H](C)CC[C@]2(C(=O)O)CC[C@]3(C)C(=CC[C@@H]4[C@@]5(C)CC[C@H](OC(=O)CCc6ccc(F)cc6)C(C)(C)C5CC[C@]43C)[C@H]12 (some centres unmarked) [Derivative (II-3), 3-O-parafluorophenylpropionic ursolic acid]
- IC50 [3]: > 165 µM
- IC50 [4, 13]: 2.45 ± 0.3 µM

Compound: C[C@H]1[C@H](C)CC[C@]2(C(=O)O)CC[C@]3(C)C(=CC[C@@H]4[C@@]5(C)CC[C@H](OC(=O)CCc6cccc(F)c6)C(C)(C)C5CC[C@]43C)[C@H]12 (some centres unmarked) [Derivative (II-4), 3-O-metafluorophenylpropionic ursolic acid]
- IC50 [3]: > 165 µM
- IC50 [4, 13]: 2.67 ± 0.83 µM

Compound: C[C@H]1[C@H](C)CC[C@]2(C(=O)O)CC[C@]3(C)C(=CC[C@@H]4[C@@]5(C)CC[C@H](OC(=O)CCc6ccccc6F)C(C)(C)C5CC[C@]43C)[C@H]12 (some centres unmarked) [Derivative (II-5), 3-O-orthofluorophenylpropionic ursolic acid]
- IC50 [3]: > 132 µM
- IC50 [4, 13]: 1.66 ± 0.38 µM

Compound: CC1(C)CC[C@]2(C(=O)O)CC[C@]3(C)C(=CC[C@@H]4[C@@]5(C)CC[C@H](OC(=O)CCc6ccccc6)C(C)(C)C5CC[C@]43C)[C@@H]2C1 (some centres unmarked) [Derivative (II-6), 3-O-hydrocinnamic oleanolic acid]
- IC50 [3, 14]: 23.5 ± 6.56 µM
- cytotoxicity compared with parent oleanolic acid [3]: significantly increased
- IC50 [4, 13]: 2.59 ± 0.87 µM
- antitrypanosomal activity compared with parent ursolic/oleanolic acid [4]: significantly increased activity

Compound: CC1(C)CC[C@]2(C(=O)O)CC[C@]3(C)C(=CC[C@@H]4[C@@]5(C)CC[C@H](OC(=O)/C=C/c6ccccc6)C(C)(C)C5CC[C@]43C)[C@@H]2C1 (some centres unmarked) [Derivative (II-7), 3-O-cinnamic oleanolic acid]
- IC50 [3, 14]: 22.3 ± 1.88 µM
- IC50 [4, 13]: 6.31 ± 0.96 µM

Compound: CC1(C)CC[C@]2(C(=O)O)CC[C@]3(C)C(=CC[C@@H]4[C@@]5(C)CC[C@H](OC(=O)CCc6ccc(F)cc6)C(C)(C)C5CC[C@]43C)[C@@H]2C1 (some centres unmarked) [Derivative (II-8), 3-O-parafluorophenylpropionic oleanolic acid]
- IC50 [3, 14]: 16.3 ± 3.26 µM
- cytotoxicity compared with parent oleanolic acid [3]: significantly increased
- IC50 [4, 13]: 2.88 ± 1.11 µM
- antitrypanosomal activity compared with parent ursolic/oleanolic acid [4]: significantly increased activity

Compound: CC1(C)CC[C@]2(C(=O)O)CC[C@]3(C)C(=CC[C@@H]4[C@@]5(C)CC[C@H](OC(=O)CCc6cccc(F)c6)C(C)(C)C5CC[C@]43C)[C@@H]2C1 (some centres unmarked) [Derivative (II-9), 3-O-metafluorophenylpropionic oleanolic acid]
- IC50 [3, 14]: 20.7 ± 2.25 µM
- cytotoxicity compared with parent oleanolic acid [3]: significantly increased
- IC50 [4, 13]: 1.72 ± 0.07 µM
- antitrypanosomal activity compared with parent ursolic/oleanolic acid [4]: significantly increased activity

Compound: CC1(C)CC[C@]2(C(=O)O)CC[C@]3(C)C(=CC[C@@H]4[C@@]5(C)CC[C@H](OC(=O)CCc6ccccc6F)C(C)(C)C5CC[C@]43C)[C@@H]2C1 (some centres unmarked) [Derivative (II-10), 3-O-orthofluorophenylpropionic oleanolic acid]
- IC50 [3, 14]: 18.6 ± 4.47 µM
- IC50 [4, 13]: 4.63 ± 0.28 µM

Compound: CC1(C)CC[C@]2(C(=O)O)CC[C@]3(C)C(=CC[C@@H]4[C@@]5(C)C[C@@H](O)[C@H](O)C(C)(C)[C@@H]5CC[C@]43C)[C@@H]2C1 [Maslinic acid]
- IC50 ([3]; Homo sapiens, WI-38, read-out: WI38 (IC50 μM)): 44.1 ± 8.4 µM
- IC50 ([3]; Homo sapiens, WI-38, read-out: WI38 (IC50 μg/mL)): 20.9 ± 3.97 µg/mL
- IC50 ([4]; Trypanosoma brucei, read-out: Tbb (IC50 μM)): 9.41 ± 1.35 µM
- IC50 ([4]; Trypanosoma brucei, read-out: Tbb (IC50 μg/mL)): 4.45 ± 0.64 µg/mL
- SI (Selectivity Index) [4]: 4.6

Compound: CC1(C)CC[C@]2(C(=O)O)CC[C@]3(C)C(=CC[C@@H]4[C@@]5(C)CC[C@H](O)C(C)(C)[C@@H]5CC[C@]43C)[C@@H]2C1 [Oleanolic acid]
- IC50 [3, 7]: 63.3 ± 0.74 µM
- IC50 [3, 10]: 28.9 ± 0.34 µg/mL
- IC50 [4, 11]: 5.83 ± 0.7 µM
- IC50 [4, 12]: 2.66 ± 0.32 µg/mL
- SI (Selectivity Index) [4]: 10.9

Compound: Cc1ccc(C(=O)Nc2ccc(S(=O)(=O)O)c3cc(S(=O)(=O)O)cc(S(=O)(=O)O)c23)cc1NC(=O)c1cccc(NC(=O)Nc2cccc(C(=O)Nc3cc(C(=O)Nc4ccc(S(=O)(=O)O)c5cc(S(=O)(=O)O)cc(S(=O)(=O)O)c45)ccc3C)c2)c1 [Suramine]
- survival till the end of the experiment ([1]; end of experiment day 19 post-infection): survive during all the experimental period
- IC50 [4, 11]: 0.038 ± 0.008 µM
- IC50 [4, 12]: 0.05 ± 0.01 µg/mL

Compound: C[C@@H]1CC[C@]2(C(=O)O)CC[C@]3(C)C(=CC[C@@H]4[C@@]5(C)C[C@@H](O)[C@H](O)C(C)(C)[C@@H]5CC[C@]43C)[C@@H]2[C@]1(C)O [Tormentic acid]
- WI38 (IC50 μg/mL) [3, 6]: 26.48 ± 0.33 µg/mL
- IC50 [3, 7]: 54.2 ± 0.67 µM
- Tbb (IC50 μg/mL) [4, 8]: 7.49 ± 0.33 µg/mL
- IC50 [4, 9]: 15.3 ± 0.67 µM

Compound: Annurcoic acid
- WI38 (IC50 μg/mL) [3, 6]: 70.17 ± 6.82 µg/mL
- IC50 [3, 7]: 144 ± 14 µM
- Tbb (IC50 μg/mL) [4, 8]: 27.39 ± 2.24 µg/mL
- IC50 [4, 9]: 56.3 ± 4.6 µM

— US12605351B2, “Method for producing a composition comprising a 3-O-p-coumaroyl ester of tormentic acid from a plant cell culture, applications thereof as antiparasitic agent for the treatment of trypanosomiasis” (LUXEMBOURG INSTITUTE OF SCIENCE AND TECHNOLOGY, priority 2019, dated 2026)
